The values that follow are results of earlier work, collected in patent US7445902B2, “Fluorescent nucleotide analogues” (GE Healthcare UK Limited, priority 2004, dated 2008).

The test system of the series is receptor-Gαs/Gαi fusion proteins. The following applies: binding to receptor-Gαs/Gαi fusion proteins in the expression systems employed.

Regarding “BODIPY-FL-guanosine 5′-[β,γ-imido]triphosphate [B-GppNHp]”, the “fold lower affinity than GppNHp” value (relative to GppNHp) is listed as 17-55 fold.

“BODIPY-FL-guanosine 5′-[γ-thio]triphosphate [B-GTPγS]”: the “fold lower affinity than GTPγS” value (relative to GTPγS) is 1,100-5,600 fold.
